# According to patent publication US20070275967A1, “Pyrazolinols” (BAYER CROPSCIENCE AKTIENGESELLSCHAFT, priority 2003, published 2007):
# How the values were obtained:
# [1] = system: green peach aphid (Myzus persicae); test: Myzus test (spray treatment); format: in vivo; conditions: for activity (kill of aphids): Chinese cabbage disks infested by all stages of Myzus persicae, sprayed, result in words; for pest or weed control at 500 g/ha: active compound concentration 500 g/ha
# Description: Myzus Test (Spray Treatment) [table] To produce a suitable preparation of active compound, 1 part by weight of active compound is mixed with the stated amounts of solvents and emulsifier, and the concentrate is diluted with emulsifier-containing water to the desired concentration. Disks of Chinese cabbage (Brassica pekinensis) which are infested by all stages of the green peach aphid (Myzus persicae) are sprayed with a preparation of active compound of the desired concentration. After the desired period of time, the activity in % is determined. 100% means that all aphids have been killed; 0% means that none of the aphids have been killed.
# [2] = logP determination by HPLC on reversed-phase column (EEC Directive 79/831 Annex V.A8); format: physicochemical; conditions: reversed-phase C18 HPLC column; acidic range (pH 2.3), marked a); 0.1% aqueous phosphoric acid/acetonitrile gradient; reversed-phase C 18; 43° C.
# Description: The logP values given in the table were determined in accordance with EEC Directive 79/831 Annex V.A8 by HPLC (High Performance Liquid Chromatography) on a reversed-phase column (C 18). Temperature: 43° C. (a) Mobile phases for the determination in the acidic range (pH 2.3): 0.1% aqueous phosphoric acid, acetonitrile; linear gradient from 10% acetonitrile to 90% acetonitrile—the corresponding measurement results in table 1 are marked a). (b) Mobile phases for the determination in the neutral range (pH 7.5): 0.01-molar aqueous phosphate buffer solution, acetonitrile; linear gradient from 10% acetonitrile to 90% acetonitrile—the corresponding measurement results in table 1 are marked b). Calibration was carried out using unbranched alkan-2-ones (having 3 to 16 carbon atoms) with known logP values (determination of the logP values by the retention times using linear interpolation between two successive alkanones).
# [3] = system: caterpillars of the armyworm (Spodoptera frugiperda); test: Spodoptera frugiperda test (spray treatment); format: in vivo; conditions: for pest or weed control at 500 g/ha: active compound concentration 500 g/ha; for activity (kill of caterpillars): corn leaf disks sprayed, populated with Spodoptera frugiperda caterpillars, result in words
# Description: Spodoptera Frugiperda Test (Spray Treatment) [table] To produce a suitable preparation of active compound, 1 part by weight of active compound is mixed with, the stated amounts of solvents and emulsifier, and the concentrate is diluted with emulsifier-containing water to the desired concentration. Disks of corn leaves (Zea mays) are sprayed with a preparation of active compound of the desired concentration and, after they have dried, populated with caterpillars of the armyworm (Spodoptera frugiperda). After the desired period of time, the activity in % is determined. 100% means that all caterpillars have been killed; 0% means that none of the caterpillars have been killed.
# [4] = system: larvae of the mustard beetle (Phaedon cochleariae); test: Phaedon test (spray treatment); format: in vivo; conditions: for activity (kill of beetle larvae): Chinese cabbage disks sprayed, populated with Phaedon cochleariae larvae, result in words; for pest or weed control at 500 g/ha: active compound concentration 500 g/ha
# Description: Phaedon Test (Spray Treatment) [table] To produce a suitable preparation of active compound, 1 part by weight of active compound is mixed with the stated amounts of solvents and emulsifier, and the concentrate is diluted with emulsifier-containing water to the desired concentration. Disks of Chinese cabbage (Brassica pekinensis) are sprayed with a preparation of active compound of the desired concentration and, once they have dried, populated with larvae of the mustard beetle (Phaedon cochleariae). After the desired period of time, the activity in % is determined. 100% means that all beetle larvae have been killed; 0% means that none of the beetle larvae have been killed.
# [5] = system: greenhouse red spidermite (Tetranychus urticae); test: Tetranychus test (OP-resistant/spray treatment); format: in vivo; conditions: for pest or weed control at 100 g/ha / pest or weed control at 500 g/ha: Tetranychus urticae, 120 h, after 5 d, OP-resistant, spray treatment, read-out: Kill rate in % after 5 d; for pest or weed control at 100 g/ha: active compound concentration 100 g/ha; for activity (kill of spidermites): bean leaf disks infested by all stages of Tetranychus urticae (OP-resistant), sprayed, result in words; for pest or weed control at 500 g/ha: active compound concentration 500 g/ha
# Description: Tetranychus Test (OP-Resistant/Spray Treatment)
# To produce a suitable preparation of active compound, 1 part by weight of active compound is mixed with the stated amounts of solvents and emulsifier, and the concentrate is diluted with emulsifier-containing water to the desired concentration.
# Disks of bean leaves (Phaseolus vulgaris) which are infested by all stages of the greenhouse red spidermite (Tetranychus urticae) are sprayed with a preparation of active compound of the desired concentration.
# After the desired period of time, the activity in % is determined. 100% means that all spidermites have been killed; 0% means that none of the spidermites have been killed.
# Meloidogyne incognita = test: Meloidogyne test (nematicidal action by gall formation on lettuce roots); format: in vivo
# Description: Meloidogyne Test [table] To produce a suitable preparation of active compound, 1 part by weight of active compound is mixed with the stated amounts of solvent and emulsifier, and the concentrate is diluted with water to the desired concentration. Containers are filled with sand, solution of active compound, Meloidogyne incognita egg/larvae suspension and lettuce seeds. The lettuce seeds germinate and the plants develop. On the roots, galls are formed. After the desired period of time, the nematicidal action is determined in % by the formation of galls. 100% means that no galls were found; 0% means that the number of galls on the treated plants corresponds to that of the untreated control.
# [6] = Myzus persicae, 120 h, after 5 d, spray treatment, read-out: Kill rate in % after 5 d
# [7] = Spodoptera frugiperda, 168 h, after 7 d, spray treatment, read-out: Kill rate in % after 7 d
# [8] = Phaedon cochleariae, 168 h, after 7 d, spray treatment, read-out: Kill rate in % after 7 d
compound,measurement,setting,value
"CC(C)C1=NN(C(=S)Nc2ccccc2F)C(O)(C(F)(F)F)C1 (centres unmarked) [Example 1, N-(2-fluorophenyl)-5-hydroxy-3-(i-propyl)-5-trifluoromethyl-4,5-dihydro-1H-pyrazole-1-carbothioamide]",activity (kill of aphids),[1],good activity
same,pest or weed control at 500 g/ha,[1]; [6],100%
same,chromatographic logP,[2],3.86
same,pest or weed control at 500 g/ha,[3]; [7],100%
same,activity (kill of caterpillars),[3],good activity
same,activity (kill of beetle larvae),[4],good activity
same,pest or weed control at 500 g/ha,[4]; [8],100%
same,pest or weed control at 100 g/ha,[5],90%
same,activity (kill of spidermites),[5],good activity
CCC1=NN(C(=S)Nc2ccccc2F)C(O)(C(F)(F)F)C1 (centres unmarked) [Example 40],activity (kill of aphids),[1],good activity
same,pest or weed control at 500 g/ha,[1]; [6],90%
same,chromatographic logP,[2],3.51
CC(C)C1=NN(C(=S)Nc2ccccc2Cl)C(O)(C(F)(F)F)C1 (centres unmarked) [Example 20],activity (kill of aphids),[1],good activity
same,pest or weed control at 500 g/ha,[1]; [6],100%
same,chromatographic logP,[2],4.28
same,pest or weed control at 500 g/ha,[3]; [7],100%
same,activity (kill of caterpillars),[3],good activity
CC(C)C1=NN(C(=S)Nc2ccccc2[N+](=O)[O-])C(O)(C(F)(F)F)C1 (centres unmarked) [Example 31],activity (kill of aphids),[1],good activity
same,pest or weed control at 500 g/ha,[1]; [6],100%
same,chromatographic logP,[2],4.04
same,pest or weed control at 500 g/ha,[3]; [7],100%
same,activity (kill of caterpillars),[3],good activity
same,activity (kill of beetle larvae),[4],good activity
same,pest or weed control at 500 g/ha,[4]; [8],100%
Cc1ccc(NC(=O)N2N=C(C(C)(C)C)CC2(O)C(F)(F)F)cc1 (centres unmarked) [Example 70],activity (kill of aphids),[1],good activity
same,pest or weed control at 100 g/ha,"[1]; Myzus persicae, 120 h, active compound concentration 100 g/ha, after 5 d, spray treatment, read-out: Kill rate in % after 5 d",100%
same,chromatographic logP,[2],4.05
CC(C)CC1=NN(C(=S)Nc2ccccc2Cl)C(O)(C(F)(F)F)C1 (centres unmarked) [Example 24],activity (kill of aphids),[1],good activity
same,pest or weed control at 500 g/ha,[1]; [6],90%
same,chromatographic logP,[2],4.6
same,pest or weed control at 500 g/ha,[3]; [7],100%
same,activity (kill of caterpillars),[3],good activity
same,pest or weed control at 500 g/ha,[5],90%
same,activity (kill of spidermites),[5],good activity
CC(C)C1=NN(C(=S)Nc2ccccc2)C(O)(C(F)(F)F)C1 (centres unmarked) [Example 27],activity (kill of aphids),[1],good activity
same,pest or weed control at 500 g/ha,[1]; [6],100%
same,chromatographic logP,[2],3.9
same,pest or weed control at 500 g/ha,[3]; [7],100%
same,activity (kill of caterpillars),[3],good activity
same,activity (kill of beetle larvae),[4],good activity
same,pest or weed control at 500 g/ha,[4]; [8],100%
same,pest or weed control at 100 g/ha,[5],90%
same,activity (kill of spidermites),[5],good activity
CCC1=NN(C(=S)NCc2ccccc2F)C(O)(C(F)(F)F)C1 (centres unmarked) [Example 55],chromatographic logP,[2],3.88
same,pest or weed control at 500 g/ha,[3]; [7],100%
same,activity (kill of caterpillars),[3],good activity
same,activity (kill of beetle larvae),[4],good activity
same,pest or weed control at 500 g/ha,[4]; [8],100%
same,pest or weed control at 100 g/ha,[5],90%
same,activity (kill of spidermites),[5],good activity
CC(C)C1=NN(C(=S)NC2CCCCC2)C(O)(C(F)(F)F)C1 (centres unmarked) [Example 44],chromatographic logP,[2],4.94
same,pest or weed control at 500 g/ha,[3]; [7],100%
same,activity (kill of caterpillars),[3],good activity
same,activity (kill of beetle larvae),[4],good activity
same,pest or weed control at 500 g/ha,[4]; [8],100%
same,pest or weed control at 500 g/ha,[5],90%
same,activity (kill of spidermites),[5],good activity
CCC1=NN(C(=S)Nc2ccccc2Cl)C(O)(C(F)(F)F)C1 (centres unmarked) [Example 15],activity (kill of aphids),[1],good activity
same,pest or weed control at 500 g/ha,[1]; [6],90%
same,chromatographic logP,[2],3.85
CC(C)C1=NN(C(=S)NCc2ccccc2Cl)C(O)(C(F)(F)F)C1 (centres unmarked) [Example 42],activity (kill of aphids),[1],good activity
same,pest or weed control at 500 g/ha,[1]; [6],100%
same,chromatographic logP,[2],4.58
same,pest or weed control at 500 g/ha,[3]; [7],100%
same,activity (kill of caterpillars),[3],good activity
same,activity (kill of beetle larvae),[4],good activity
same,pest or weed control at 500 g/ha,[4]; [8],100%
same,pest or weed control at 500 g/ha,[5],100%
same,activity (kill of spidermites),[5],good activity
CCC1=NN(C(=O)Nc2ccc(OC(F)(F)F)cc2)C(O)(C(F)(F)F)C1 (centres unmarked) [Example 12],activity (kill of aphids),[1],good activity
same,pest or weed control at 500 g/ha,[1]; [6],100%
same,chromatographic logP,[2],3.74
CC1=NN(C(=O)Nc2ccc(OC(F)(F)F)cc2)C(O)(C(F)(F)F)C1 (centres unmarked) [Example 46],activity (kill of aphids),[1],good activity
same,pest or weed control at 500 g/ha,[1]; [6],90%
same,chromatographic logP,[2],3.35
CC1=NN(C(=S)NCc2ccc(Cl)cc2)C(O)(C(F)(F)F)C1 (centres unmarked) [Example 123],nematicidal action (formation of galls),"Meloidogyne incognita; Meloidogyne incognita egg/larvae suspension, lettuce, sand, result in words",good activity
same,pest or weed control at 20 ppm,"Meloidogyne incognita; Meloidogyne incognita, 336 h, active compound concentration 20 ppm, after 14 d, nematicidal action by gall formation, read-out: Effect in % after 14 d",90%
CC(C)C1=NN(C(=S)Nc2cc(Cl)ccc2Cl)C(O)(C(F)(F)F)C1 (centres unmarked) [Example 33],activity (kill of aphids),[1],good activity
same,pest or weed control at 500 g/ha,[1]; [6],100%
same,chromatographic logP,[2],4.87
same,activity (kill of beetle larvae),[4],good activity
same,pest or weed control at 500 g/ha,[4]; [8],100%
CC(C)(C)C1=NN(C(=S)Nc2ccc(Cl)cc2)C(O)(C(F)(F)F)C1 (centres unmarked) [Example 74],chromatographic logP,[2],4.75
same,pest or weed control at 100 g/ha,"[3]; Spodoptera frugiperda, 168 h, active compound concentration 100 g/ha, after 7 d, spray treatment, read-out: Kill rate in % after 7 d",100%
same,activity (kill of caterpillars),[3],good activity
same,activity (kill of beetle larvae),[4],good activity
same,pest or weed control at 100 g/ha,"[4]; Phaedon cochleariae, 168 h, active compound concentration 100 g/ha, after 7 d, spray treatment, read-out: Kill rate in % after 7 d",100%
same,pest or weed control at 100 g/ha,[5],100%
same,activity (kill of spidermites),[5],good activity
